biological target: T1, human insulin receptor (CHO.IR cells) (Homo sapiens, UniProt P06213); assay: Cell-based assay for insulin receptor tyrosine kinase activity; details: 20 min; CHO.IR cells treated with 100 μM of compound; read-out: reduction in tyrosine kinase activity
T1 construct: host or cells: CHO.IR cells (CHO)
Method: CHO.IR cells overexpressing human insulin receptor were obtained from Stanford University. Approximately 1.5×10^5 cells were seeded in each well of a 96-well plate containing Hams F12 medium plus 10% fetal calf serum, fungizone, penicillin, and streptomycin. The cells were incubated at 37° C. for approximately 24 hours, allowing cells to reach confluency. The cells were then washed with phosphate buffered saline (PBS) three times and then incubated in serum-free medium at 37° C. for 2 hours. Insulin or test compounds were added to the wells and the cells were incubated for an additional 20 minutes at 37° C. The cells were washed with PBS three times and then lysed in 60 μL/well of a lysis buffer containing 50 mM HEPES, pH 7.4, 1% Triton X-100, 5 mM EDTA, 5 mM EGTA, 20 mM sodium pyrophosphate, 1 mM sodium vanadate, 20 mM sodium fluoride, 1 mg/mL Bacitracin, 150 mM sodium chloride, 2 μg/mL Aprotonin, and 1 mM PMSF. Lysates were transferred to a second 96-well plate pre-coated with monoclonal anti-insulin receptor antibody (0.2 μg/50 μL/well, in 20 mM NaHCO3, pH 9.6). The second plate was incubated at 4° C. for 16 hours to immunoabsorb insulin receptors.
CHO.IR cells were cultured at approximately 1.5×10^5 cells/well (in a 96-well plate) in a Hams F12 medium supplemented with 10% fetal calf serum, fungizone, penicillin, and streptomycin. The cells were incubated at 37° C. for 24 hours, allowing cells to reach confluency. The cells were then washed with PBS three times and then incubated in serum-free medium at 37° C. for 2 hours. Insulin or test compounds were added to the cells and incubated for an additional 20 minutes at 37° C. The cells were washed three times with PBS and lysed in the same 60 μL lysis buffer as mentioned in Example 174. Lysates were transferred to a second 96-well plate pre-coated with monoclonal anti-insulin receptor antibody (under the same conditions as those mentioned in Example 174). Lysates were incubated at 4° C. for 16 hours to immunoabsorb insulin receptors.
20 μL of a kinase reaction mixture (50 mM Hepes, pH 7.6, 150 mM NaCl, 5 mM MgCl2, 5 mM MnCl2, 0.1% Triton x-100, 1 mg/mL poly(Glu:Tyr)(4:1), 2 μCi of carrier-free [γ-^32P]ATP) was added to each well. After reacting at 25° C. for 40 minutes, the reaction mixture was transferred to a Multiscreen pH plate (Millipore, Billerica, Mass.) and unbound ATP was washed away. The insulin receptor tyrosine kinase activity was determined by detecting the radioactivities associated with the wells using a Topcount scintillation counter (Perkin-Elmer, Wellesley, Mass.).

T1 sequence (P06213 28-758 limits assumed): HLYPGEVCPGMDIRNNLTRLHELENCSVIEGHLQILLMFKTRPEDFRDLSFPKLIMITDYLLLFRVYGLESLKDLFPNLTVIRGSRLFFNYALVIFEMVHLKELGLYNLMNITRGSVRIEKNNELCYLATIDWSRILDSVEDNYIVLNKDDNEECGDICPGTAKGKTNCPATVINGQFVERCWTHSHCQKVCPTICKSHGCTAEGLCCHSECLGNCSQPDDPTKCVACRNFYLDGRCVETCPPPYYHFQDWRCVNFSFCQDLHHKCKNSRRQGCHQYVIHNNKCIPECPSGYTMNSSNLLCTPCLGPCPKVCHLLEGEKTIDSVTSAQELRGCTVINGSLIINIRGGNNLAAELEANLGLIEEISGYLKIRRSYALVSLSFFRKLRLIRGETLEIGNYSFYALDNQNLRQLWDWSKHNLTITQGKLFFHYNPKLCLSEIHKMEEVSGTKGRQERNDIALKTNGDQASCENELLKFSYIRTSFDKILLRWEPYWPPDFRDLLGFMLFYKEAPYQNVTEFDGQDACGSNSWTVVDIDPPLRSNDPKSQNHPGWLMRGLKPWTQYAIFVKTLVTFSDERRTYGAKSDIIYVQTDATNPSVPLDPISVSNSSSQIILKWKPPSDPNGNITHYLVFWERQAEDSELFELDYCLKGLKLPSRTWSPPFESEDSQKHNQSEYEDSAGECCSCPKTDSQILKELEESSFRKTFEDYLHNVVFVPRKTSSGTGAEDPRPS
T1 sequence (P06213 763-1382 limits assumed): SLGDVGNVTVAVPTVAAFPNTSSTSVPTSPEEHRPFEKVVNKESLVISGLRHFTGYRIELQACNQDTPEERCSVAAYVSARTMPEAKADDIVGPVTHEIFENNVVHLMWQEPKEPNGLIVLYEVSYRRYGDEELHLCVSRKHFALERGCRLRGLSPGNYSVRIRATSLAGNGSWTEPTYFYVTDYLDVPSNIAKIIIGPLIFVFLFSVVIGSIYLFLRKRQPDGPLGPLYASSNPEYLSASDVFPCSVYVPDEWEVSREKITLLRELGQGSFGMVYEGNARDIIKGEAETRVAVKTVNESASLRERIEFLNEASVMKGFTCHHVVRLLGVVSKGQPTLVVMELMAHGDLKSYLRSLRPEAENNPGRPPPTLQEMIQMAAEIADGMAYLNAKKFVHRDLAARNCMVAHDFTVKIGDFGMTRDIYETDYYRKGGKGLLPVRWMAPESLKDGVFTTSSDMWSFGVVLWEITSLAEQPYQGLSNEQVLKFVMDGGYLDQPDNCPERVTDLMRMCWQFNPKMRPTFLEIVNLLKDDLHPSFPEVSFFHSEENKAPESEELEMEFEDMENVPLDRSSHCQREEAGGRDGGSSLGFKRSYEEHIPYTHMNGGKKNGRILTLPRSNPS

Inhibition at 100 µM, 12 to 53%:
O=C(O)c1oc(C(=O)c2c[nH]c3c(CCCC(CO)CO)cccc23)c(O)c1-c1c[nH]c2ccccc12 [Compound 173]
CCCCCc1cccc2c(C(=O)c3oc(C(=O)O)c(-c4c[nH]c5ccccc45)c3O)c[nH]c12 [Compound 171]
O=C(O)c1oc(C(=O)c2c[nH]c3c(CCCO)cccc23)c(O)c1-c1c[nH]c2ccccc12 [Compound 9]
O=C(O)CCc1cccc2c(C(=O)c3oc(C(=O)O)c(-c4c[nH]c5ccccc45)c3O)c[nH]c12 [Compound 170]
O=C(O)c1oc(C(=O)c2c[nH]c3c(CCCCO)cccc23)c(O)c1-c1c[nH]c2ccccc12 [Compound 21]
O=C(O)CCCCc1cccc2c(C(=O)c3oc(C(=O)O)c(-c4c[nH]c5ccccc45)c3O)c[nH]c12 [Compound 172]
O=C(O)c1oc(C(=O)c2c[nH]c3c(CCCCCO)cccc23)c(O)c1-c1c[nH]c2ccccc12 [Compound 30]
O=C(O)c1sc(C(=O)c2c[nH]c3c(CCCCCO)cccc23)c(O)c1-c1c[nH]c2ccccc12 [Compound 114]

From patent publication US20060122232A1, “4-Hydroxyfuroic acid derivatives” (DEVELOPMENT CENTER FOR BIOTECHNOLOGY, priority 2004, published 2006)
